What was measured:
[1] = target: Cyclin-dependent kinase 7 (Homo sapiens, UniProt P50613); test: (§1) In Vitro Kinase Inhibition Assay: In vitro kinase assay analysis may be performed using standard techniques described in the art. These techniques are also used by commercial services providers in order to offer in vitro kinase activity assay services, e.g. the assays offered by Millipore Inc. (worldwide website www(dot)millipore.com), ProQinase GmbH (worldwide website www(dot)proqinase.de) and others. All kinase assays were performed in 96-well FlashPlates from Perkin Elmer/NEN (Boston, Mass., USA) in a 50ul reaction volume. The reaction mixture was pipetted in four steps in the following order: 20ul of assay buffer (standard buffer),5ul of ATP solution (in H2O, 5 ul of test compound (in 10% DMSO), 10ul of substrate/10ul of enzyme solution (premixed)The assay for all enzymes contained 60 mM HEPES-NaOH (pH 7.5), 3 mM MgCl2, 3 mM MnCl2, 3uM Na-Orthovanadate, 1.2 mM DTT, 50 ug/ml PEG2000, 1 uM [33P]-ATP (approx. 5x1005 cpm per well).
[2] = target: Glycogen synthase kinase-3 alpha (Homo sapiens, UniProt P49840); test: as §1
[3] = target: Cyclin-dependent kinase 9 (Homo sapiens, UniProt P50750); test: as §1
[4] = target: Interleukin-1 receptor-associated kinase 1 (Homo sapiens, UniProt P51617); test: as §1
[5] = target: Cyclin-dependent kinase 3 (Homo sapiens, UniProt Q00526); test: as §1
[6] = target: Cyclin-dependent kinase 6 (Homo sapiens, UniProt Q00534); test: as §1
[7] = target: Cyclin-dependent kinase 1 (Homo sapiens, UniProt P06493); test: as §1
[8] = target: Glycogen synthase kinase-3 beta (Homo sapiens, UniProt P49841); test: as §1
[9] = target: Cyclin-dependent kinase 5 (Homo sapiens, UniProt Q00535); test: as §1
[10] = target: Cyclin-dependent kinase 2 (Homo sapiens, UniProt P24941); test: as §1

Cyclin-dependent kinase 5, sequence (Q00535 whole entry): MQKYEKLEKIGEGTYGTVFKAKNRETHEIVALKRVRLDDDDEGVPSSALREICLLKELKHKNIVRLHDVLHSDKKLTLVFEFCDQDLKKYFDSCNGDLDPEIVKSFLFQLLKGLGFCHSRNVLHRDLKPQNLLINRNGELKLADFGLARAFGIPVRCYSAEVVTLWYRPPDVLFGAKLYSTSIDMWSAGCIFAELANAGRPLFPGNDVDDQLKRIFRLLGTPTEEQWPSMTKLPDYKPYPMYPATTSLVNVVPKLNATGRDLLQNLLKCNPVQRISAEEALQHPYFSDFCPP
Cyclin-dependent kinase 3, sequence (Q00526 whole entry): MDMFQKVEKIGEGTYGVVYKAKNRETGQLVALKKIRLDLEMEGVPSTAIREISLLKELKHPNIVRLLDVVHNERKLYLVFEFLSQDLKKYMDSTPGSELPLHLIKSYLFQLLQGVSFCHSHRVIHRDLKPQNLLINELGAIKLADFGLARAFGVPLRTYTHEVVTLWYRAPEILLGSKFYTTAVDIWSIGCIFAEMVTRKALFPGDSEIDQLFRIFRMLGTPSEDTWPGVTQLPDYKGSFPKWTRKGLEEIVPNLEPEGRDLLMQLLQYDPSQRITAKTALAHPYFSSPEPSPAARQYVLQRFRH
Glycogen synthase kinase-3 beta, sequence (P49841 whole entry): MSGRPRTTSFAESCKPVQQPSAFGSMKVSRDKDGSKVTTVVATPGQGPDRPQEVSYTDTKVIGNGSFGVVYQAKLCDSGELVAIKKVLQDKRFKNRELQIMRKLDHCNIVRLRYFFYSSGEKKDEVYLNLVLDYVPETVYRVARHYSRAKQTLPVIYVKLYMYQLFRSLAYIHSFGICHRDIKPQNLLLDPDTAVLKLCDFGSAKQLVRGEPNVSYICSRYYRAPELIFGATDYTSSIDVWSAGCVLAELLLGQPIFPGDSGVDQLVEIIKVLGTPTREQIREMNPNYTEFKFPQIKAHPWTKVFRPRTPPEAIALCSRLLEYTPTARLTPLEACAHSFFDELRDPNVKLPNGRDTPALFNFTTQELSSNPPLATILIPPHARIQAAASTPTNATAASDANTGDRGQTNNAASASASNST
Glycogen synthase kinase-3 alpha, sequence (P49840 whole entry): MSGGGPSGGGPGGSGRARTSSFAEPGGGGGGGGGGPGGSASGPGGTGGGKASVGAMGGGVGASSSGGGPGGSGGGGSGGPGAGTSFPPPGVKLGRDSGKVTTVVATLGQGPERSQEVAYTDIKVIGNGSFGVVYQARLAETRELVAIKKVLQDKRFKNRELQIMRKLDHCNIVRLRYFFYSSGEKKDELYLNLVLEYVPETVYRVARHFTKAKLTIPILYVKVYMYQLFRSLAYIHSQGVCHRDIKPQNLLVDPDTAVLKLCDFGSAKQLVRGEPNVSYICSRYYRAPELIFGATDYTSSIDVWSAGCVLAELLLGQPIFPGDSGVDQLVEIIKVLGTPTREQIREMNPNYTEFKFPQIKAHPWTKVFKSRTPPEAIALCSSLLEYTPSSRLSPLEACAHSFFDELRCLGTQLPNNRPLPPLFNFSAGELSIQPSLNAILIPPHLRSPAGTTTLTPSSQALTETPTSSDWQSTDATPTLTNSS
Interleukin-1 receptor-associated kinase 1, sequence (P51617 whole entry): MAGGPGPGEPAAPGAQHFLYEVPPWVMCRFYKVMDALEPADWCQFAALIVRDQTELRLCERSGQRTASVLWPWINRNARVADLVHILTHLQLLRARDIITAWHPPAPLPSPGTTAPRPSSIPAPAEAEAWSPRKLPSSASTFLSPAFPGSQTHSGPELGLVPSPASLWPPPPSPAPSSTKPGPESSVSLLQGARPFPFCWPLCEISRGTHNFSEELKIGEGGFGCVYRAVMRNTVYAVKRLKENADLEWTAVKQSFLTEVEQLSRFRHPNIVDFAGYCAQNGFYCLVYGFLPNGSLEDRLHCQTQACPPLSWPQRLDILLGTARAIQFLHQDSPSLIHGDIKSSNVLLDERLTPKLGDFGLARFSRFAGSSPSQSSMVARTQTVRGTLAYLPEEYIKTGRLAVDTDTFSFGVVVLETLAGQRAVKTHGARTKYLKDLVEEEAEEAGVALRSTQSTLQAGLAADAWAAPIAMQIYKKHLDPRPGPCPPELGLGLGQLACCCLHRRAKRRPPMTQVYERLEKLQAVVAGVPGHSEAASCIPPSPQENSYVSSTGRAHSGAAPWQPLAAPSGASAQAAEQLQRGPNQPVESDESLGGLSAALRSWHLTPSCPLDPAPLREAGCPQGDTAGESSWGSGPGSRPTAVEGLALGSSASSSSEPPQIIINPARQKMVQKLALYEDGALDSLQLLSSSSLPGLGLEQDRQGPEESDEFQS
Cyclin-dependent kinase 6, sequence (Q00534 whole entry): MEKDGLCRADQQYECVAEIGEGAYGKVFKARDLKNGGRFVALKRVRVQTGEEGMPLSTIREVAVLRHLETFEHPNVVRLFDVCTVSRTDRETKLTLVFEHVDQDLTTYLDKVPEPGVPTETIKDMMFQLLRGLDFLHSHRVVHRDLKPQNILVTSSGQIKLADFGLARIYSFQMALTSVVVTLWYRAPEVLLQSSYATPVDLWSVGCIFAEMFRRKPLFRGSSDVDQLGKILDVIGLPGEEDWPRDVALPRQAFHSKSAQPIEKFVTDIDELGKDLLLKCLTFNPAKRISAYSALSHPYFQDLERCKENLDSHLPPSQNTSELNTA
Cyclin-dependent kinase 7, sequence (P50613 whole entry): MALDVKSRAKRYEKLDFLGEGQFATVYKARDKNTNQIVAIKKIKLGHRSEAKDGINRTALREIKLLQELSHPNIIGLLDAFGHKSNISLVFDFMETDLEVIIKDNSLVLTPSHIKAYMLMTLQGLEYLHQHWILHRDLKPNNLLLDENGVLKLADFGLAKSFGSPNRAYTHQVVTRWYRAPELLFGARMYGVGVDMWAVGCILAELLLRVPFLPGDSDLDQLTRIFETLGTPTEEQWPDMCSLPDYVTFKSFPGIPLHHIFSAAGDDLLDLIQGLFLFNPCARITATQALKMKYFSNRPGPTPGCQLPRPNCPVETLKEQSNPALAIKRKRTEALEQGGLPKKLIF
Cyclin-dependent kinase 1, sequence (P06493 whole entry): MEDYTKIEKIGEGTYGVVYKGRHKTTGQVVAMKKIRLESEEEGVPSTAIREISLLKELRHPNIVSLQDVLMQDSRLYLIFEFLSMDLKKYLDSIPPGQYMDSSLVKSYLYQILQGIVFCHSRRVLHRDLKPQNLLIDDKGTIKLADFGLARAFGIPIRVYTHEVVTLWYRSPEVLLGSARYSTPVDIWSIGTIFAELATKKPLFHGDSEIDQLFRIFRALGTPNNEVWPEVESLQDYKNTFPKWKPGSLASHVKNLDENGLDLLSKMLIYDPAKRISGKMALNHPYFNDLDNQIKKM
Cyclin-dependent kinase 9, sequence (P50750 whole entry): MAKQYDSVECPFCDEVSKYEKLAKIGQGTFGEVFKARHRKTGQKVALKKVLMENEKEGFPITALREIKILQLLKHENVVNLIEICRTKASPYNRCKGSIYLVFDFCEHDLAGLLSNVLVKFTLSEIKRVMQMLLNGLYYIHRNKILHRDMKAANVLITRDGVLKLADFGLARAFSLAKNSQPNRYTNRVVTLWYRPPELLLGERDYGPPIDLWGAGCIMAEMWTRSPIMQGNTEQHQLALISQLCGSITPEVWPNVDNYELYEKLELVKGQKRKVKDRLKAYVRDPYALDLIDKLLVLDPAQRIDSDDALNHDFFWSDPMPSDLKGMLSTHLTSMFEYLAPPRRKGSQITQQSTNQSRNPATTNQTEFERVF

IC50 [1]: > 5000 nM
IC50 [2]: 99 nM
IC50 [3]: 10 nM
IC50 [4]: > 5000 nM
IC50 [5]: 1450 nM
IC50 [6]: > 5000 nM
IC50 [7]: 1880 nM
IC50 [8]: 857 nM
IC50 [9]: 1340 nM
IC50 [10]: 913 nM
SMILES: COc1cc(F)ccc1-c1ccnc(NC(=O)[C@@H]2CC[C@H](NC(C)=O)C2)c1
